Results reported in ChEMBL document CHEMBL1201862, “PubChem BioAssay data set” (2004).
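Assay format: 96-well plates, 48-hour exposure. GI50 = concentration required for 50% inhibition of growth.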 Calls of active or inactive are those of the source. Rule as the data show it: active = GI50 up to about 1.1 µM and inactive = higher.

Legend:
Test in all cases: NCI-60 cell line screen, 48 h
UACC-62 = tested on: UACC-62
HL-60 = tested on: HL-60
K562 = tested on: K562
OVCAR-5 = tested on: OVCAR-5
SNB-75 = tested on: SNB-75
SK-MEL-28 = tested on: SK-MEL-28
DLD-1 = tested on: DLD-1
DMS-273 = tested on: DMS-273
CAKI-1 = tested on: CAKI-1
NCI-H460 = tested on: NCI-H460
U-251 = tested on: U-251
COLO 205 = tested on: COLO 205
HCT-116 = tested on: HCT-116
HOP-62 = tested on: HOP-62
CCRF-CEM = tested on: CCRF-CEM
HOP-92 = tested on: HOP-92

Structure (SMILES) | GI50 (UACC-62) | GI50 (HL-60) | GI50 (K562) | GI50 (OVCAR-5) | GI50 (SNB-75) | GI50 (SK-MEL-28) | GI50 (DLD-1) | GI50 (DMS-273) | GI50 (CAKI-1) | GI50 (NCI-H460) | GI50 (U-251) | GI50 (COLO 205) | GI50 (HCT-116) | GI50 (HOP-62) | GI50 (CCRF-CEM) | GI50 (HOP-92)
CCN1CCC(O)(c2ccc(Cl)c(Cl)c2)C(C(=O)c2ccc(Cl)c(Cl)c2)C1 (stereo unspecified) | 17 µM (inactive) | 15.2 µM (inactive) | 18 µM (inactive) | 19.2 µM (inactive) | 14.3 µM (inactive) | 18.2 µM (inactive) | 17.8 µM (inactive) | 18.1 µM (inactive) | 18.3 µM (inactive) | 21.3 µM (inactive) | 18 µM (inactive) | 16.9 µM (inactive) | 18.5 µM (inactive) | 18.3 µM (inactive) | 17.1 µM (inactive) | 14.5 µM (inactive)
CC12CCC([C@H](N3CCOCC3)/C1=N\OCCN1CCCC1)C2(C)C (stereo partly specified) | > 100 µM (inactive) | > 100 µM (inactive) | > 100 µM (inactive) | > 100 µM (inactive) | > 100 µM (inactive) | > 100 µM (inactive) | > 100 µM (inactive) | > 100 µM (inactive) | > 100 µM (inactive) | > 100 µM (inactive) | > 100 µM (inactive) | > 100 µM (inactive) | > 100 µM (inactive) | > 100 µM (inactive) | > 100 µM (inactive) | > 100 µM (inactive)
CNC(SC)=C1C(=O)OC(C)(C)OC1=O | > 100 µM (inactive) | > 100 µM (inactive) | > 100 µM (inactive) | > 100 µM (inactive) | > 100 µM (inactive) | > 100 µM (inactive) | 22.2 µM (inactive) | 0.499 µM (active) | > 100 µM (inactive) | 50 µM (inactive) | 18.1 µM (inactive) | 45.8 µM (inactive) | 58.2 µM (inactive) | > 100 µM (inactive) | > 100 µM (inactive) | > 100 µM (inactive)
CN(C)P(=O)(/C(N)=N/Nc1ccc([N+](=O)[O-])cc1)N(C)C | > 100 µM (inactive) | > 100 µM (inactive) | > 100 µM (inactive) | > 100 µM (inactive) | > 100 µM (inactive) | > 100 µM (inactive) | > 100 µM (inactive) | > 100 µM (inactive) | > 100 µM (inactive) | > 100 µM (inactive) | > 100 µM (inactive) | > 100 µM (inactive) | > 100 µM (inactive) | > 100 µM (inactive) | > 100 µM (inactive) | 41.4 µM (inactive)
CC1=Nc2ccccc2S(=O)(=O)N1 | > 100 µM (inactive) | > 100 µM (inactive) | > 100 µM (inactive) | > 100 µM (inactive) | > 100 µM (inactive) | > 100 µM (inactive) | > 100 µM (inactive) | > 100 µM (inactive) | > 100 µM (inactive) | > 100 µM (inactive) | > 100 µM (inactive) | > 100 µM (inactive) | > 100 µM (inactive) | > 100 µM (inactive) | > 100 µM (inactive) | > 100 µM (inactive)
COc1cc2c([C@@H](OC(=O)c3ccccc3)c3ccc4c(c3)OCO4)nccc2c(OC)c1OC | 14.7 µM (inactive) | 16.4 µM (inactive) | 24.9 µM (inactive) | 76.9 µM (inactive) | 11.8 µM (inactive) |  | 53.3 µM (inactive) | 32.4 µM (inactive) | 9.31 µM (inactive) | 54 µM (inactive) | 61.7 µM (inactive) | 78.7 µM (inactive) | 26.9 µM (inactive) | > 100 µM (inactive) | 28.6 µM (inactive) | 65.5 µM (inactive)
O=C(CCN1CCN(c2ccccc2)CC1)N1CCc2c([nH]c3ccccc23)C1c1cccnc1 (stereo unspecified) | > 10 µM (inactive) | 14.3 µM (inactive) | 15.9 µM (inactive) | 16.9 µM (inactive) | 28.8 µM (inactive) | 15.7 µM (inactive) | 18.4 µM (inactive) | 17.5 µM (inactive) | 18.1 µM (inactive) | 16.6 µM (inactive) | 16.4 µM (inactive) | 13.5 µM (inactive) | 14.9 µM (inactive) | 20.8 µM (inactive) | 20.6 µM (inactive) | 18.5 µM (inactive)
c1ccc(CN2CCCCC(Sc3ccccc3)CC2)cc1 (stereo unspecified) | 36 µM (inactive) | 23.3 µM (inactive) | 15.5 µM (inactive) | 18.3 µM (inactive) | 30.5 µM (inactive) | 45.3 µM (inactive) | 20.8 µM (inactive) | 12.6 µM (inactive) | 26.9 µM (inactive) | 20.2 µM (inactive) | 15.9 µM (inactive) | 13.4 µM (inactive) | 27.2 µM (inactive) | 64.4 µM (inactive) | 19.2 µM (inactive) | 28.5 µM (inactive)
N=C1NC2(O)C(=O)c3ccccc3C2(O)N1 (stereo unspecified) | > 100 µM (inactive) | > 100 µM (inactive) | > 100 µM (inactive) | > 100 µM (inactive) | > 100 µM (inactive) | > 100 µM (inactive) | > 100 µM (inactive) | > 100 µM (inactive) | > 100 µM (inactive) | > 100 µM (inactive) | > 100 µM (inactive) | > 100 µM (inactive) | > 100 µM (inactive) | > 100 µM (inactive) | > 100 µM (inactive) | > 100 µM (inactive)
O=C(c1ccc(Cl)cc1)N(C(=S)N1CCN(c2ccccn2)CC1)c1ccccc1 | > 100 µM (inactive) | 32.7 µM (inactive) | 41.7 µM (inactive) | > 100 µM (inactive) | > 100 µM (inactive) | > 100 µM (inactive) | > 100 µM (inactive) | 78.3 µM (inactive) | > 100 µM (inactive) | > 100 µM (inactive) | > 100 µM (inactive) | > 100 µM (inactive) | 97.5 µM (inactive) | > 100 µM (inactive) | > 100 µM (inactive) | > 100 µM (inactive)
CC(=O)O[C@H]1CCC2[C@@H]3CCC4c5nonc5CC[C@]4(C)C3CC[C@@]21C (stereo partly specified) | > 10 µM (inactive) | > 10 µM (inactive) | > 10 µM (inactive) | > 10 µM (inactive) | 51.3 µM (inactive) | > 10 µM (inactive) | > 10 µM (inactive) | > 10 µM (inactive) | > 10 µM (inactive) | > 10 µM (inactive) | > 10 µM (inactive) | > 10 µM (inactive) | > 10 µM (inactive) | > 10 µM (inactive) | > 10 µM (inactive) | > 10 µM (inactive)
O=c1[nH][nH]c(=O)[nH]1 | > 100 µM (inactive) | > 100 µM (inactive) | > 100 µM (inactive) | > 100 µM (inactive) | > 100 µM (inactive) | > 100 µM (inactive) | > 100 µM (inactive) | > 100 µM (inactive) | > 100 µM (inactive) | > 100 µM (inactive) | > 100 µM (inactive) | > 100 µM (inactive) | > 100 µM (inactive) | > 100 µM (inactive) | > 100 µM (inactive) | > 100 µM (inactive)
